What all share (format): cell-based
One test has as its system Pr. mirabilis 525. Nature of the test: In vitro antibacterial activity, two-fold agar-plate dilution method (MIC), Pr. mirabilis 525. The note with it: read-out: minimal inhibitory concentration (MIC). On the procedure: (§1) In vitro antibacterial activity was determined by the two-fold agar-plate dilution method as described below.
(§2) One loopful of an overnight culture of each test strain in Trypticase-soy broth (10^8 viable cells per ml) was streaked on heart infusion agar (HI-agar) containing graded concentrations of antibiotics, and the minimal inhibitory concentration (MIC) was expressed in terms of μg/ml after incubation at 37° C. for 20 hours.

The test system of another test is Ps. aeruginosa721. Nature of the test: In vitro antibacterial activity, two-fold agar-plate dilution method (MIC), Ps. aeruginosa 721. The conditions noted are these: Pseudomonas aeruginosa, read-out: minimal inhibitory concentration (MIC). As to the method: as §1, §2
For the next test, the system named is Kl. pneumoniae 417. Briefly: In vitro antibacterial activity, two-fold agar-plate dilution method (MIC), Kl. pneumoniae 417. The note with it: Klebsiella pneumoniae, HI-agar, 37° C., 20 hours, 10^8 viable cells per ml, read-out: minimal inhibitory concentration (MIC). On the procedure:
as §1, §2

The next test relates to E coli 341. Briefly: In vitro antibacterial activity, two-fold agar-plate dilution method (MIC), E coli 341. The conditions noted are these: read-out: minimal inhibitory concentration (MIC). As to the method:
as §1, §2

Another test concerns Sal. Enteritidis. Nature of the test: In vitro antibacterial activity, two-fold agar-plate dilution method (MIC), Sal. Enteritidis. The conditions noted are these: Salmonella enterica, read-out: minimal inhibitory concentration (MIC). As to the method: as §1, §2
A further test has as its system Sh. flexneri2a. Briefly: In vitro antibacterial activity, two-fold agar-plate dilution method (MIC), Sh. flexneri 2a. The conditions noted are these: Shigella flexneri, HI-agar, 37° C., 20 hours, 10^8 viable cells per ml, read-out: minimal inhibitory concentration (MIC). On the procedure: as §1, §2
Setting [1] is: Proteus mirabilis, Pr. mirabilis 525, HI-agar, 37° C., 20 hours, 10^8 viable cells per ml.
[2] abbreviates: Ps. aeruginosa721, HI-agar, 37° C., 20 hours, 10^8 viable cells per ml.
Setting [3] is: E coli 341, HI-agar, 37° C., 20 hours, 10^8 viable cells per ml.
Setting [4] is: Sal. Enteritidis, HI-agar, 37° C., 20 hours, 10^8 viable cells per ml.

≈ marks a conversion by molar mass, not a printed value. Where two headings read alike, the source gives them in different places.

Regarding `Cn1nnnc1SCC1=C(C(=O)O)N2C(=O)C(NC(=O)/C(=N\O)c3ccc(O)cc3)C2SC1` (stereo not drawn) [Test Compound (1), Sodium 7-[2-hydroxyimino-2-(4-hydroxyphenyl)acetamido]-3-(1-methyl-1H-tetrazol-5-yl)thiomethyl-3-cephem-4-carboxylate (syn isomer)], the MIC in the test with Pr. mirabilis 525 (setting [1]) was 1.56 µg/mL; in the test on Ps. aeruginosa721 (setting [2]), 25 µg/mL; in the test with Kl. pneumoniae 417 it was 3.13 µg/mL; with E coli 341 (setting [3]) it was 1.56 µg/mL; in the test with Sal. Enteritidis (ENTERITIDIS, 20 h), 3.13 µg/mL; in the test with Sh. flexneri2a, 0.78 µg/mL.

Turning to `Cn1nnnc1SCC1=C(C(=O)O)N2C(=O)C(NC(=O)/C(=N\O)c3cccc(O)c3)C2SC1` (stereo not drawn) [Test Compound (2), Sodium 7-(2-hydroxyimino-2-(3-hydroxyphenyl)acetamido]-3-(1-methyl-1H-tetrazol-5-yl)thiomethyl-3-cephem-4-carboxylate (syn isomer)], the MIC amounted to 1.56 µg/mL with Pr. mirabilis 525 (setting [1]); 100 µg/mL in the test with Ps. aeruginosa721 (setting [2]); 0.78 µg/mL in the test with Kl. pneumoniae 417; 0.78 µg/mL in the test with E coli 341 (setting [3]); 1.56 µg/mL in the test on Sal. Enteritidis (setting [4]); 0.78 µg/mL in the test with Sh. flexneri2a.

Turning to `CC(=O)OCC1=C(C(=O)O)N2C(=O)C(NC(=O)/C(=N\O)c3ccc(O)c(Cl)c3)C2SC1` (stereo not drawn) [Test Compound (3), Sodium 7-[2-hydroxyimino-2-(3-chloro-4-hydroxyphenyl)acetamido]cephalosporanate (syn isomer)], the MIC came to 0.39 µg/mL in the test on Pr. mirabilis 525 (setting [1]); 3.13 µg/mL in the test on Ps. aeruginosa721 (20 h); 3.13 µg/mL in the test on Kl. pneumoniae 417; 6.25 µg/mL with E coli 341 (setting [3]); 0.78 µg/mL in the test on Sal. Enteritidis (setting [4]); 3.13 µg/mL in the test with Sh. flexneri2a.

Regarding `O=C(O)C1=C(CSc2nncs2)CSC2C(NC(=O)/C(=N\O)c3cccc(O)c3)C(=O)N12` (stereo not drawn) [Test Compound (4), 7-[2-Hydroxyimino-2-[3-hydroxyphenyl)acetamido]-3-(1,3,4-thiadiazol-2-yl)thiomethyl-3-cephem-4-carboxylic acid (syn isomer)], the MIC in the test with Pr. mirabilis 525 (setting [1]) is 1.56 µg/mL (≈ 3.16 µM); in the test on Ps. aeruginosa721 (setting [2]), 12.5 µg/mL (≈ 25.3 µM); with Kl. pneumoniae 417, 3.13 µg/mL (≈ 6.34 µM); in the test with E coli 341 (setting [3]) it was 0.78 µg/mL (≈ 1.58 µM); with Sal. Enteritidis (setting [4]) it was 0.39 µg/mL (≈ 0.79 µM); with Sh. flexneri2a it was 0.39 µg/mL (≈ 0.79 µM).

As for `Cc1nnc(SCC2=C(C(=O)O)N3C(=O)C(NC(=O)/C(=N\O)c4cccc(O)c4)C3SC2)s1` (stereo not drawn) [Test Compound (5), 7-[2-Hydroxyimino-2-(3-hydroxyphenyl)acetamido]-3-(5-methyl-1,3,4-thiadiazol-2-yl)thiomethyl-3-cephem-4-carboxylic acid (syn isomer)], the MIC in the test with Pr. mirabilis 525 (setting [1]) turned out to be 3.13 µg/mL (≈ 6.17 µM); in the test on Ps. aeruginosa721 (setting [2]), 6.25 µg/mL (≈ 12.3 µM); with Kl. pneumoniae 417, 0.78 µg/mL (≈ 1.54 µM); in the test on E coli 341 (setting [3]) it was 0.78 µg/mL (≈ 1.54 µM); with Sal. Enteritidis (setting [4]), 0.2 µg/mL (≈ 0.394 µM); in the test on Sh. flexneri2a, 0.39 µg/mL (≈ 0.768 µM).

As to `Cn1nnnc1SCC1=C(C(=O)O)N2C(=O)C(NC(=O)/C(=N\OC(=O)c3ccccc3)c3cccc(O)c3)C2SC1` (stereo not drawn) [Test Compound (6), 7-[2-Benzoyloxyimino-2-(3-hydroxyphenyl)acetamido]-3-(1-methyl-1H-tetrazol-5-yl)thiomethyl-3-cephem-4-carboxylic acid (syn isomer)], the MIC in the test with Pr. mirabilis 525 (setting [1]) stood at 0.78 µg/mL (≈ 1.31 µM); with Ps. aeruginosa721 (setting [2]), 12.5 µg/mL (≈ 21 µM); in the test with Kl. pneumoniae 417, 0.39 µg/mL (≈ 0.655 µM); in the test on E coli 341 (setting [3]), 1.56 µg/mL (≈ 2.62 µM); in the test with Sal. Enteritidis (setting [4]) it was 0.39 µg/mL (≈ 0.655 µM); with Sh. flexneri2a it was 0.78 µg/mL (≈ 1.31 µM).

With `CCOC(=O)O/N=C(\C(=O)NC1C(=O)N2C(C(=O)O)=C(CSc3nnnn3C)CSC12)c1cccc(O)c1` (stereo not drawn) [Test Compound (7), 7-[2-Ethoxycarbonyloxyimino-2-(3-hydroxyphenyl)acetamido]-3-(1-methyl-1H-tetrazol-5-yl)thiomethyl-3-cephem-4-carboxylic acid (syn isomer)], the MIC was 0.39 µg/mL (≈ 0.692 µM) in the test with Pr. mirabilis 525 (setting [1]); 25 µg/mL (≈ 44.4 µM) in the test on Ps. aeruginosa721 (setting [2]); 0.39 µg/mL (≈ 0.692 µM) with Kl. pneumoniae 417; 3.13 µg/mL (≈ 5.55 µM) with E coli 341 (setting [3]); 0.2 µg/mL (≈ 0.355 µM) in the test on Sal. Enteritidis (setting [4]); 1.56 µg/mL (≈ 2.77 µM) in the test with Sh. flexneri2a.

Consider `CC(=O)OCC1=C(C(=O)O)N2C(=O)C(NC(=O)/C(=N\O)c3cccc(O)c3)C2SC1` (stereo not drawn) [Test Compound (8), 7-[2-Hydroxyimino-2-(3-hydroxphenyl)acetamido]cephalosporanic acid (syn isomer)], for which the MIC turned out to be 1.56 µg/mL (≈ 3.58 µM) in the test with Pr. mirabilis 525 (Proteus mirabilis, 525, 20 h); 25 µg/mL (≈ 57.4 µM) in the test with Ps. aeruginosa721 (setting [2]); 1.56 µg/mL (≈ 3.58 µM) in the test on Kl. pneumoniae 417; 0.78 µg/mL (≈ 1.79 µM) with E coli 341 (setting [3]); 1.56 µg/mL (≈ 3.58 µM) with Sal. Enteritidis (ENTERITIDIS, 20 h); 0.78 µg/mL (≈ 1.79 µM) with Sh. flexneri2a.

For the molecule `NC(=O)OCC1=C(C(=O)O)N2C(=O)C(NC(=O)/C(=N\O)c3cccc(O)c3)C2SC1` (stereo not drawn) [Test Compound (9), Sodium 7-[2-hydroxyimino-2-(3-hydroxyphenyl)acetamido]-3-carbamoyloxymethyl-3-cephem-4-carboxylate (syn isomer)], the MIC with Pr. mirabilis 525 (setting [1]) was found to be 0.78 µg/mL; with Ps. aeruginosa721 (setting [2]), 6.25 µg/mL; in the test on Kl. pneumoniae 417, 0.2 µg/mL; with Sal. Enteritidis (setting [4]) it was 0.78 µg/mL; in the test with Sh. flexneri2a, 0.78 µg/mL.

`Cn1nnnc1SCC1=C(C(=O)O)N2C(=O)C(NC(=O)/C(=N\O)c3ccc(O)c([N+](=O)[O-])c3)C2SC1` (stereo not drawn) [Test Compound (10), 7-[2-Hydroxyimino-2-(3-nitro-4-hydroxyphenyl)acetamido]-3-(1-methyl-1H-tetrazol-5-yl)thiomethyl-3-cephem-4-carboxylic acid (syn isomer)]: the MIC in the test with Pr. mirabilis 525 (setting [1]) amounted to 0.2 µg/mL (≈ 0.373 µM); with Kl. pneumoniae 417, 0.39 µg/mL (≈ 0.727 µM); in the test with E coli 341 (setting [3]), 3.13 µg/mL (≈ 5.83 µM); in the test on Sal. Enteritidis (setting [4]) it was 0.2 µg/mL (≈ 0.373 µM); in the test with Sh. flexneri2a, 1.56 µg/mL (≈ 2.91 µM).

For `Cc1nnc(SCC2=C(C(=O)O)N3C(=O)C(NC(=O)/C(=N\O)c4ccccc4)C3SC2)s1` (stereo not drawn) [Test Compound (A), 7-(2-Hydroxyimino-2-phenylacetamido)-3-(5-methyl-1,3,4-thiadiazol-2-yl)thiomethyl-3-cephem-4-carboxylic acid (syn isomer), reference compound], the MIC in the test with Pr. mirabilis 525 (setting [1]) turned out to be 25 µg/mL (≈ 50.9 µM); with Ps. aeruginosa721 (setting [2]) it was 50 µg/mL (≈ 102 µM); in the test on Kl. pneumoniae 417 it was 12.5 µg/mL (≈ 25.4 µM); in the test with E coli 341 (20 h), 12.5 µg/mL (≈ 25.4 µM); in the test with Sal. Enteritidis (ENTERITIDIS, 20 h) it was 6.25 µg/mL (≈ 12.7 µM); in the test with Sh. flexneri2a, 6.25 µg/mL (≈ 12.7 µM).

These data come from US4143166A, “7[(2-Hydroxyamino-2-disubstituted phenyl-acetamido)-]3-heterocyclicthio-3-cephem-4-carboxylic acids” (Fujisawa Pharmaceutical Co., Ltd., priority 1975, dated 1979).
